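A five-concentration, 48-hour dose response in 96-well plates underlies each endpoint, interpolated linearly between surrounding concentrations. GI50 marks 50% less growth.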 Activity calls are given as the source filed them. No stated cut-off is given here; in the data, active = GI50 up to about 1.1 µM and inactive = higher.
Experiments:
Assay in all cases: NCI tumour cell line growth inhibition, 48 h
[1] = tested on: 786-0
[2] = tested on: A498
[3] = tested on: A549
[4] = tested on: ACHN
[5] = tested on: BT-549
[6] = tested on: CAKI-1
[7] = tested on: CCRF-CEM
[8] = tested on: COLO 205
[9] = tested on: DU-145
[10] = tested on: EKVX
[11] = tested on: HCC 2998
[12] = tested on: HCT-116
[13] = tested on: HCT-15
[14] = tested on: HL-60
[15] = tested on: HOP-62
[16] = tested on: HOP-92
[17] = tested on: HT-29
[18] = tested on: Hs-578T
[19] = tested on: IGROV-1
[20] = tested on: K562
[21] = tested on: KM12
[22] = tested on: LOX IMVI
[23] = tested on: M14
[24] = tested on: MCF7
[25] = tested on: MDA-MB-231
[26] = tested on: MDA-MB-435
[27] = tested on: MDA-N
[28] = tested on: MOLT-4
[29] = tested on: Malme-3M
[30] = tested on: NCI-H226
[31] = tested on: NCI-H23
[32] = tested on: NCI-H460
[33] = tested on: NCI-H522
[34] = tested on: NCI/ADR-RES
[35] = tested on: OVCAR-3
[36] = tested on: OVCAR-4
[37] = tested on: OVCAR-5
[38] = tested on: OVCAR-8
[39] = tested on: PC-3
[40] = tested on: RPMI-8226
[41] = tested on: RXF 393
[42] = tested on: SF-268
[43] = tested on: SF-295
[44] = tested on: SF-539
[45] = tested on: SK-MEL-28
[46] = tested on: SK-MEL-2
[47] = tested on: SK-MEL-5
[48] = tested on: SK-OV-3
[49] = tested on: SN12C
[50] = tested on: SNB-19
[51] = tested on: SNB-75
[52] = tested on: SR
[53] = tested on: SW-620
[54] = tested on: T47D
[55] = tested on: TK-10
[56] = tested on: U-251
[57] = tested on: UACC-257
[58] = tested on: UACC-62
[59] = tested on: UO-31

In the case of C/C=C/[P+](c1ccccc1)(c1ccccc1)c1ccccc1, the GI50 [1] is reported as 7.33 µM (inactive), the GI50 [2] is reported as 6.58 µM (inactive) and the GI50 [3] is reported as 0.548 µM (active). For the same compound, the GI50 [4] was 4.56 µM (inactive), the GI50 [5] was 0.277 µM (active) and the GI50 [6] was > 68.1 µM (inactive). The GI50 [7] was 0.474 µM (active), the GI50 [8] was 0.101 µM (active) and the GI50 [9] was 1.15 µM (inactive). For the same compound, the GI50 [10] was 0.296 µM (active), the GI50 [11] was 0.24 µM (active) and the GI50 [12] was 0.433 µM (active). For the same compound, the GI50 [13] was 25.5 µM, the GI50 [14] was 0.78 µM (active) and the GI50 [15] was 3.03 µM (inactive). For the same compound, the GI50 [16] was 0.738 µM (active), the GI50 [17] was 0.914 µM (active) and the GI50 [18] was 0.337 µM (active). The GI50 [19] was 2.11 µM (inactive), the GI50 [20] was 0.0649 µM (active) and the GI50 [21] was 0.277 µM (active). The GI50 [22] was 1.34 µM (inactive), the GI50 [23] was 4.92 µM (inactive) and the GI50 [24] was 1.18 µM (inactive). The GI50 [25] was 2.58 µM (inactive), the GI50 [26] was 0.277 µM (active) and the GI50 [27] was 0.35 µM (active). The GI50 [28] was 2.42 µM (inactive), the GI50 [29] was 0.541 µM (active) and the GI50 [30] was 3.57 µM (inactive). The GI50 [31] was 2.06 µM (inactive), the GI50 [32] was 1.36 µM (inactive) and the GI50 [33] was 0.836 µM (active). For the same compound, the GI50 [34] was > 100 µM (inactive), the GI50 [35] was 0.54 µM (active) and the GI50 [36] was 2.77 µM (inactive). For the same compound, the GI50 [37] was 4.24 µM (inactive), the GI50 [38] was 0.426 µM (active) and the GI50 [39] was 0.962 µM (active). The GI50 [40] was 0.0413 µM (active), the GI50 [41] was 6.14 µM (inactive) and the GI50 [42] was 1.54 µM (inactive). The GI50 [43] was 2.26 µM (inactive), the GI50 [44] was 1.48 µM (inactive) and the GI50 [45] was 1.29 µM (inactive). For the same compound, the GI50 [46] was 1.82 µM (inactive), the GI50 [47] was 0.378 µM (active) and the GI50 [48] was 1.42 µM (inactive). The GI50 [49] was 1.79 µM (inactive), the GI50 [50] was 0.299 µM (active) and the GI50 [51] was 3.48 µM (inactive). The GI50 [52] was 0.381 µM (active), the GI50 [53] was 0.48 µM (active) and the GI50 [54] was 0.163 µM (active). The GI50 [55] was 0.787 µM (active), the GI50 [56] was 0.102 µM (active) and the GI50 [57] was 0.295 µM (active). The GI50 [58] was 1.71 µM (inactive) and the GI50 [59] was 26.7 µM (inactive).
With Cc1ccc2c(O)cc(-c3ccc(Cl)cc3)nc2n1 the GI50 [1] was 5.38 µM (inactive), the GI50 [2] was 9.73 µM (inactive) and the GI50 [3] was 2.73 µM (inactive). The GI50 [4] was 8.07 µM (inactive), the GI50 [5] was 2.38 µM (inactive) and the GI50 [6] was 5.57 µM (inactive). The GI50 [7] was 7.52 µM (inactive), the GI50 [8] was 1.85 µM (inactive) and the GI50 [9] was 6.05 µM (inactive). For the same compound, the GI50 [10] was 18 µM (inactive), the GI50 [11] was 6.65 µM (inactive) and the GI50 [12] was 3.1 µM (inactive). The GI50 [13] was 3.31 µM, the GI50 [14] was 2.69 µM (inactive) and the GI50 [15] was 9.16 µM (inactive). The GI50 [16] was 13.6 µM (inactive), the GI50 [17] was 3.3 µM (inactive) and the GI50 [18] was 11.9 µM (inactive). The GI50 [19] was 5.69 µM (inactive), the GI50 [20] was 2.58 µM (inactive) and the GI50 [21] was 4.57 µM (inactive). For the same compound, the GI50 [22] was 4.93 µM (inactive), the GI50 [23] was 7.48 µM (inactive) and the GI50 [24] was 3.35 µM (inactive). The GI50 [25] was 5.52 µM (inactive), the GI50 [26] was 1.32 µM (inactive) and the GI50 [27] was 1.56 µM (inactive). The GI50 [28] was 1.2 µM (inactive), the GI50 [29] was 3.74 µM (inactive) and the GI50 [30] was 14.9 µM (inactive). The GI50 [31] was 27.2 µM (inactive), the GI50 [32] was 3.69 µM (inactive) and the GI50 [33] was 5.89 µM (inactive). The GI50 [34] was 8.89 µM (inactive), the GI50 [35] was 3.1 µM (inactive) and the GI50 [36] was 15.2 µM (inactive). The GI50 [37] was > 39.3 µM (inactive), the GI50 [38] was 9.33 µM (inactive) and the GI50 [39] was 2.96 µM (inactive). For the same compound, the GI50 [40] was 1.87 µM (inactive), the GI50 [41] was 27.2 µM (inactive) and the GI50 [42] was 27 µM (inactive). For the same compound, the GI50 [43] was 4.59 µM (inactive), the GI50 [44] was 5.16 µM (inactive) and the GI50 [45] was 9.66 µM (inactive). The GI50 [46] was 3.98 µM (inactive), the GI50 [47] was 3.47 µM (inactive) and the GI50 [48] was 6.64 µM (inactive). The GI50 [49] was 4.38 µM (inactive), the GI50 [50] was 6.97 µM (inactive) and the GI50 [51] was 8.24 µM (inactive). The GI50 [52] was 4.33 µM (inactive), the GI50 [53] was 5.08 µM (inactive) and the GI50 [54] was 0.764 µM (active). The GI50 [55] was 21.2 µM (inactive), the GI50 [56] was 5.47 µM (inactive) and the GI50 [57] was 15.6 µM (inactive). For the same compound, the GI50 [58] was 5.15 µM (inactive) and the GI50 [59] was 14.3 µM (inactive).
